Earlier results on one compound are cited in US20240182984A1, “METHODS FOR ASSESSING PROLIFERATION AND ANTI-FOLATE THERAPEUTIC RESPONSE” (priority 2021, published 2024).

This data set has as its system bronchioid subtype of LUAD. The settings on record: compared with other LUAD subtypes.

Turning to `Nc1nc2[nH]cc(CCc3ccc(C(=O)N[C@@H](CCC(=O)O)C(=O)O)cc3)c2c(=O)[nH]1` [pemetrexed], the “sensitivity of the bronchioid subtype of LUAD (Group 1)” value is given as “more sensitive”.
